What was measured:
Assay in all cases: MMP assay (Mca-KPLGL-Dpa-AR-NH2 substrate)
Type in all cases: biochemical
Settings in all cases: triplicate, 10-point, 3:1 serial dilution, highest concentration 17.4 µM
[1] = target: T1, MMP2 (Homo sapiens, UniProt P08253)
T1 construct: purchased R&D Systems 902-MP
T1 sequence (P08253 110-660): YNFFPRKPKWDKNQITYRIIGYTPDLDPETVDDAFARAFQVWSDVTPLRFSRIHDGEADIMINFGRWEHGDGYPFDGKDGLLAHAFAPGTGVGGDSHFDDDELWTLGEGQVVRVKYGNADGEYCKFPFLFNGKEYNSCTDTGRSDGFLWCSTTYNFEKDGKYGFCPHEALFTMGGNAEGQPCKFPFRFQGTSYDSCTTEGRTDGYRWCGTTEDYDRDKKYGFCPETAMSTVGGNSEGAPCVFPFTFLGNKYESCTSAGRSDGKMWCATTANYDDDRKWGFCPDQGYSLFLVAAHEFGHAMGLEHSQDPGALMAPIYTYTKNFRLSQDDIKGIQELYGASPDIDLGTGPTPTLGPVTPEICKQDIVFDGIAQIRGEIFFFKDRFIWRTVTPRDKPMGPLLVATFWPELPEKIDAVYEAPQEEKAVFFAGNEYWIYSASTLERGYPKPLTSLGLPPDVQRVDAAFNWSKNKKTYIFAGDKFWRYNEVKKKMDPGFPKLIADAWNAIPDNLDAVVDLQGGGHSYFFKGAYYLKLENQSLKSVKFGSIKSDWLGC
Protocol: (§1) We were able to procure 64 out of 87 selected compounds from commercial sources, which we tested in triplicate, 10-point, 3:1 serial dilution concentration response format starting at the highest concentration of 17.4 µM against both meprin α and meprin β. In addition to meprins, we also tested 64 hits against related metzincins (MMP-2, MMP-3, MMP-8, MMP-9, MMP-10, MMP-14, ADAM10, and ADAM17) to ascertain general nonpromiscuity against zinc-dependent proteases.
(§2) All assays followed the same general protocol. A 5 µL portion of 2 × enzyme solution (5 nM) in assay buffer (50 mM Tricine, 50 mM NaCl, 10 mM CaCl2, 0.05% Brij-35, pH 7.5) was added to solid bottom black 384 plates (Nunc, cat# 264705). Next, test compounds and pharmacological controls were added to corresponding wells using a 384-pin tool device (V&P Scientific, San Diego, CA, USA). After 30 min incubation at RT, the reactions were started by addition of 5 µL of 2x solutions of substrate (R&D Systems cat#: ES010, Mca-KPLGL-Dpa-AR-NH2, 20 µM). Reactions were incubated at RT for 1 h, after which the fluorescence was measured using the Synergy H4 multimode microplate reader (Biotek Instruments) (λexcitation = 324 nm, λemission = 390 nm).

[2] = target: MMP3 (Homo sapiens, UniProt P08254)
MMP3, sequence (P08254 100-477, species assumed): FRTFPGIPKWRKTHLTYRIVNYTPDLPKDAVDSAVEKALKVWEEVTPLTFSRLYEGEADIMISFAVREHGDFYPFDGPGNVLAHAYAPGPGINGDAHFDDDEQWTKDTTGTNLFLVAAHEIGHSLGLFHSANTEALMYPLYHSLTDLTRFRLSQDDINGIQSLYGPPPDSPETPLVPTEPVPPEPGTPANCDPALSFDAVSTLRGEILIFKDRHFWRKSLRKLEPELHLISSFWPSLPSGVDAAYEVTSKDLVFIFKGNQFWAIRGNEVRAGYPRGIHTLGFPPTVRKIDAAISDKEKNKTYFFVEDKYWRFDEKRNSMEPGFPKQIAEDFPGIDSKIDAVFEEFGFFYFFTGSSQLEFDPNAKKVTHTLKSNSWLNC
Protocol: as §1, §2

[3] = target: T2, MMP9 (Homo sapiens, UniProt P14780)
T2 construct: purchased R&D Systems 911-MP
T2 sequence (P14780 94-707): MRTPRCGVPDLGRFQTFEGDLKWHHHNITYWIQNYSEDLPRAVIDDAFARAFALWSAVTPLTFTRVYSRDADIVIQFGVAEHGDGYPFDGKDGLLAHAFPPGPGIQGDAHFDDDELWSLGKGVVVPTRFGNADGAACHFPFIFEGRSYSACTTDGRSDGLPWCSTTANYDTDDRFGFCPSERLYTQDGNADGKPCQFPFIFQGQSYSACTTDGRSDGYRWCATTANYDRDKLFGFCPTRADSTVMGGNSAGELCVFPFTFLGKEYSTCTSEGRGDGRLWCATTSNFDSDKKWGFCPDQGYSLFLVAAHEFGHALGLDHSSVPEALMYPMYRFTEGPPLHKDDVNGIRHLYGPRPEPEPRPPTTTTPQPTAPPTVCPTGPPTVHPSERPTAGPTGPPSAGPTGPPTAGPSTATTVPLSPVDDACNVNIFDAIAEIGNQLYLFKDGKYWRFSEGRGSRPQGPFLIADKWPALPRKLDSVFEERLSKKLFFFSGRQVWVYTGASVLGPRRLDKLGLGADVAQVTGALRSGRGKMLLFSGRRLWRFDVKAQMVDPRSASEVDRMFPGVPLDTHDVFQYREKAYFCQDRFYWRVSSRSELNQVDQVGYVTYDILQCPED
Protocol: as §1, §2

| SMILES | IC50 [1] [µM] | IC50 [2] [µM] | IC50 [3] [µM] |
| --- | --- | --- | --- |
| O=C(CSc1nnc(NC(=O)c2ccccc2)s1)NO [Compound 19847] | 2.87 | > 17 | > 17 |
| O=C(CSc1nnc(NC(=O)COc2ccccc2)s1)NO [Compound 19848] | > 17 | > 17 | > 17 |
| COc1cc(OC)cc(C(=O)CNc2nnc(SCC(=O)NO)s2)c1 [Compound 19849] | > 17 | > 17 | > 17 |
| COc1ccc(-n2c(CSc3ncccn3)nnc2SCC(=O)NO)cc1 [Compound 19855] | > 17 | > 17 | > 17 |
| O=C(CCN(Cc1cccs1)S(=O)(=O)c1ccc([N+](=O)[O-])cc1)NO [Compound 162799] | > 17 | > 17 | > 17 |
| O=C(CCN(Cc1ccccc1)S(=O)(=O)c1ccc(F)cc1)NO [Compound 162808] | 17 | > 17 | > 17 |
| O=C(COc1ccc(Cl)cc1Cl)NO [Compound 1596857] | > 17 | > 17 | > 17 |
| O=[N+]([O-])c1ccc(CN2CCC3(CCc4ccccc43)CC2)o1 [SR207820] | > 17 | 17 | > 17 |
| O=C(c1ccc(C(=O)O)c([N+](=O)[O-])c1)c1ccc(C(=O)O)c([N+](=O)[O-])c1 [SR355996] | > 17 | > 17 | 17 |
| CSc1nnc2c(n1)OC(c1ccc([N+](=O)[O-])o1)Nc1ccccc1-2 (stereo not drawn) [SR412882] | > 17 | 15 | > 17 |
